Experimental data reported in the NIST ThermoML archive (doi:10.1016/j.jct.2014.01.030).

Tests used:
[1] = molar heat capacity at constant pressure; details: 101.33 kPa, Liquid, Small sample (50 mg) DSC
[2] = refractive index (Na D-line) (dimensionless); details: 101.33 kPa, Liquid, Standard Abbe refractometry
[3] = Liquid; for speed of sound: Sing-around technique in a fixed-path interferometer; for mass density: Vibrating tube method; for viscosity: Capillary tube (Ostwald / Ubbelohde) method
[4] = xn = mol fraction of the nth substance listed; details: 101 kPa, Liquid, x1 = 1; for speed of sound: Sing-around technique in a fixed-path interferometer; for mass density: Vibrating tube method

CCn1cc[n+](C)c1.COS(=O)(=O)[O-] [1-ethyl-3-methylimidazolium methylsulfate]
Details | molar heat capacity at constant pressure, [1] [J/K/mol] | refractive index, [2]
288.15 K | 331.48 | –
293.15 K | – | 1.48252
298.15 K | 340.77 | 1.48125
303.15 K | – | 1.47998
308.15 K | 346.99 | 1.47868
313.15 K | – | 1.4774
318.15 K | – | 1.47612
323.15 K | – | 1.4748
328.15 K | – | 1.4735
333.15 K | – | 1.47218
338.15 K | – | 1.47086
343.15 K | – | 1.46954

[3], 101.33 kPa
Details | mass density [kg/m3] | speed of sound [m/s] | viscosity [mPa·s]
288.15 K | 1287.57 | 1781 | –
293.15 K | 1284.26 | 1768 | 85.22
298.15 K | 1280.81 | 1756 | 67.06
303.15 K | 1277.28 | 1744 | 54.39
308.15 K | 1273.97 | 1732 | 44.68
313.15 K | 1270.57 | 1720 | 37.1
318.15 K | 1267.18 | 1709 | 31.27
323.15 K | 1263.81 | 1697 | 26.81
328.15 K | 1260.45 | 1686 | 22.74
333.15 K | 1257.09 | 1675 | 19.71
338.15 K | 1253.75 | 1663 | 17.25
343.15 K | 1250.42 | 1652 | 15.16

CCC(C)O (configuration not stated) [butan-2-ol]
Details | refractive index
[2], 298.15 K | 1.39487

[3], 101 kPa
Details | mass density [kg/m3] | speed of sound [m/s]
288.15 K | 810.96 | 1249
298.15 K | 802.82 | 1213
308.15 K | 794.34 | 1177

CCC(C)O (configuration not stated) [butan-2-ol] + CCn1cc[n+](C)c1.COS(=O)(=O)[O-]
[4]
Details | mass density [kg/m3] | speed of sound [m/s]
288.15 K | 810.96 | 1249
298.15 K | 802.82 | 1213
308.15 K | 794.34 | 1177

CCO [ethanol]
Details | refractive index
[2], 298.15 K | 1.35907

[3], 101 kPa
Details | mass density [kg/m3] | speed of sound [m/s]
288.15 K | 794.04 | 1179
298.15 K | 785.52 | 1145
308.15 K | 776.87 | 1111

CCO [ethanol] + CCn1cc[n+](C)c1.COS(=O)(=O)[O-]
[4]
Details | mass density [kg/m3] | speed of sound [m/s]
288.15 K | 794.04 | 1179
298.15 K | 785.52 | 1145
308.15 K | 776.87 | 1111

CO [methanol]
Details | refractive index
[2], 298.15 K | 1.32649

[3], 101 kPa
Details | mass density [kg/m3] | speed of sound [m/s]
288.15 K | 796.46 | 1137
298.15 K | 787.1 | 1104
308.15 K | 777.64 | 1071

CO [methanol] + CCn1cc[n+](C)c1.COS(=O)(=O)[O-]
[4]
Details | mass density [kg/m3] | speed of sound [m/s]
288.15 K | 796.46 | 1137
298.15 K | 787.1 | 1104
308.15 K | 777.64 | 1071

CCCCCO [pentan-1-ol]
Details | refractive index
[2], 298.15 K | 1.40774

[3], 101 kPa
Details | mass density [kg/m3] | speed of sound [m/s]
288.15 K | 818.25 | 1310
298.15 K | 810.99 | 1276
308.15 K | 803.61 | 1243

CCCCCO [pentan-1-ol] + CCn1cc[n+](C)c1.COS(=O)(=O)[O-]
[4]
Details | mass density [kg/m3] | speed of sound [m/s]
288.15 K | 818.25 | 1310
298.15 K | 810.99 | 1276
308.15 K | 803.61 | 1243

CCCO [propan-1-ol]
Details | refractive index
[2], 298.15 K | 1.38286

[3], 101 kPa
Details | mass density [kg/m3] | speed of sound [m/s]
288.15 K | 808.48 | 1243
298.15 K | 800.5 | 1208
308.15 K | 792.38 | 1174

CCCO [propan-1-ol] + CCn1cc[n+](C)c1.COS(=O)(=O)[O-]
[4]
Details | mass density [kg/m3] | speed of sound [m/s]
288.15 K | 808.48 | 1243
298.15 K | 800.5 | 1208
308.15 K | 792.38 | 1174

CC(C)O [propan-2-ol]
Details | refractive index
[2], 298.15 K | 1.37523

[3], 101 kPa
Details | mass density [kg/m3] | speed of sound [m/s]
288.15 K | 790.01 | 1177
298.15 K | 781.67 | 1141
308.15 K | 773.03 | 1106

CC(C)O [propan-2-ol] + CCn1cc[n+](C)c1.COS(=O)(=O)[O-]
[4]
Details | mass density [kg/m3] | speed of sound [m/s]
288.15 K | 790.01 | 1177
298.15 K | 781.67 | 1141
308.15 K | 773.03 | 1106
